Key:
Type in all cases: binding
[1] = molecular target: kinases (KINOMEscan panel) (Homo sapiens, UniProt Q9HC98); conditions: kinase NEK6; NEW KINOMEscan
[2] = molecular target: kinases (KINOMEscan panel) (Homo sapiens, UniProt Q5S007); conditions: NEW KINOMEscan
[3] = molecular target: kinases (KINOMEscan panel) (Homo sapiens, UniProt Q96Q40)
[4] = molecular target: T1, kinases (KINOMEscan panel) (Homo sapiens, UniProt P51956); conditions: kinase NEK3; NEW KINOMEscan
T1 sequence (P51956 1-506): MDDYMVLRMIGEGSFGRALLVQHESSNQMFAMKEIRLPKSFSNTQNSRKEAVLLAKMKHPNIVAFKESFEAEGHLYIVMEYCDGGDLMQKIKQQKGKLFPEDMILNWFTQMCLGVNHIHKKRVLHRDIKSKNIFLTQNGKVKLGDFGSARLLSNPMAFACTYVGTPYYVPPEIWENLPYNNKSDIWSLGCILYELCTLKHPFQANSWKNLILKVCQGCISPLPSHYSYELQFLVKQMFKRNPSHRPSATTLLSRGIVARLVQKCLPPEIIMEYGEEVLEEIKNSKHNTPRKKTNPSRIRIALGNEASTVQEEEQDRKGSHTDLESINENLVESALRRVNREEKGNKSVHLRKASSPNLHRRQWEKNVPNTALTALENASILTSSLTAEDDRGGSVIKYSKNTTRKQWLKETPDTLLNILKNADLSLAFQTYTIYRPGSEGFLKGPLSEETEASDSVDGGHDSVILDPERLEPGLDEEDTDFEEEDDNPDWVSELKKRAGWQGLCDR

[5] = molecular target: kinases (KINOMEscan panel) (Homo sapiens, UniProt P17612); conditions: kinase PRKACA; NEW KINOMEscan
[6] = molecular target: kinases (KINOMEscan panel) (Homo sapiens, UniProt Q04912); conditions: MST1R; NEW KINOMEscan
[7] = molecular target: T2, kinases (KINOMEscan panel) (Homo sapiens, UniProt P21709); conditions: EPHA1; NEW KINOMEscan
T2 sequence (P21709 26-976): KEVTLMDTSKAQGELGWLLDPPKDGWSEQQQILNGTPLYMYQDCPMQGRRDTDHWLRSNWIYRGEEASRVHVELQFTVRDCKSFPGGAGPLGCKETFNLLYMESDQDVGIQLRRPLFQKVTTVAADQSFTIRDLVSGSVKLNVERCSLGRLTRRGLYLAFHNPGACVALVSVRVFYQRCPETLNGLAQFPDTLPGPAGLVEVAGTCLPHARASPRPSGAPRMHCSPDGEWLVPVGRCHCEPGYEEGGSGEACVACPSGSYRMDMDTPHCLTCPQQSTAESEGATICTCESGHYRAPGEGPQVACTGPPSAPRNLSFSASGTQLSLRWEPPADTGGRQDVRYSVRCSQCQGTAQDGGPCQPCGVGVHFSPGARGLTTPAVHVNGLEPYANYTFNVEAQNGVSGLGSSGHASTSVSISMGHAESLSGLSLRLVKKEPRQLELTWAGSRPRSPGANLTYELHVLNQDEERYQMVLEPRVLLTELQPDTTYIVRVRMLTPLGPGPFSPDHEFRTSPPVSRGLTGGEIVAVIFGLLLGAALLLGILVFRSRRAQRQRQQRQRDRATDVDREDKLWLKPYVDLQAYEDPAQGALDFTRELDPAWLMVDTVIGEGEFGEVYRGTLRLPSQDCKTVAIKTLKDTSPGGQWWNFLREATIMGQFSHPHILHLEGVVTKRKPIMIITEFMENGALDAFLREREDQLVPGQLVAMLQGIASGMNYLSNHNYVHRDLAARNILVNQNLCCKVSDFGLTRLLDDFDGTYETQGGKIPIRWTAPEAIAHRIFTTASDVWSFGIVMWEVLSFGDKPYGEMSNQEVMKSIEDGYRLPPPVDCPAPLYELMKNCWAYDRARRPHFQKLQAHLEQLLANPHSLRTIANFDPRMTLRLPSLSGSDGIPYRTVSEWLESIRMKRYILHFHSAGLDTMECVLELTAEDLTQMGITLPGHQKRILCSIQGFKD

[8] = molecular target: kinases (KINOMEscan panel) (Homo sapiens, UniProt P00519, T315I); conditions: NEW KINOMEscan; for KINOMEscan ABL1(T315I)-nonphosphorylated: kinase ABL1(T315I)-nonphosphorylated; for KINOMEscan ABL1(T315I)-phosphorylated: kinase ABL1(T315I)-phosphorylated
[9] = molecular target: kinases (KINOMEscan panel) (Homo sapiens, UniProt P78362); conditions: SRPK2; NEW KINOMEscan
[10] = molecular target: T3, kinases (KINOMEscan panel) (Homo sapiens, UniProt O14936); conditions: kinase CASK; NEW KINOMEscan
T3 sequence (O14936 1-926): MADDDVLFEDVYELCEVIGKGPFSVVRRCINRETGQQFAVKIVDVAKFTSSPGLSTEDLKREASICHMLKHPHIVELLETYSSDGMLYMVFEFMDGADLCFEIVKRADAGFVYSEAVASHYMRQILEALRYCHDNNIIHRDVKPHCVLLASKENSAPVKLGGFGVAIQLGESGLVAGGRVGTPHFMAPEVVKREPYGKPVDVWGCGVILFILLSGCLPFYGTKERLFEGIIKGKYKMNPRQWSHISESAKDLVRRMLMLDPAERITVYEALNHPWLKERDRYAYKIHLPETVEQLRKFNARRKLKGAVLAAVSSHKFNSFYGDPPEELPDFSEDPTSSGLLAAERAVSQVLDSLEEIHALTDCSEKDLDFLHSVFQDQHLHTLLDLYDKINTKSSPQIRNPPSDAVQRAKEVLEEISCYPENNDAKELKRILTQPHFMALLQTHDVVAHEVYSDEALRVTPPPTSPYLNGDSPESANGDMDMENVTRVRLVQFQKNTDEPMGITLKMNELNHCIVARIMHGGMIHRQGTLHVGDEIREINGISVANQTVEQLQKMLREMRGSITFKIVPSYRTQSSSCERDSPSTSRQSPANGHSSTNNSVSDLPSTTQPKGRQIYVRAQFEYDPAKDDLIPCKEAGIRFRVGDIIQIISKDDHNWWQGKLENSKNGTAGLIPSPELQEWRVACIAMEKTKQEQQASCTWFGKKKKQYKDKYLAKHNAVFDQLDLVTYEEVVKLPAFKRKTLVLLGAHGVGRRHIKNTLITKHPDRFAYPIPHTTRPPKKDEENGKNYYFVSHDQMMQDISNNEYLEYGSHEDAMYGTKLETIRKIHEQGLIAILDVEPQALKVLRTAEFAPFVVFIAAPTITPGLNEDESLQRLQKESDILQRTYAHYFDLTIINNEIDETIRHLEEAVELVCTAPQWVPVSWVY

kinases (KINOMEscan panel) (Homo sapiens, UniProt Q9HC98), sequence (Q9HC98 whole entry): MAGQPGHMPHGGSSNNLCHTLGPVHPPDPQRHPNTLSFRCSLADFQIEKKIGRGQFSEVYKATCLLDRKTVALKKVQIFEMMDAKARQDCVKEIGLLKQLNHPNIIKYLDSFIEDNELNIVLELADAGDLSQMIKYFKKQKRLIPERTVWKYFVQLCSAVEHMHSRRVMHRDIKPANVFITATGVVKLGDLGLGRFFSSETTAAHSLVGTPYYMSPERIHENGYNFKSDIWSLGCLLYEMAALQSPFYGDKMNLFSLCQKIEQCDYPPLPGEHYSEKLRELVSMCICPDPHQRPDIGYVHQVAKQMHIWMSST
kinases (KINOMEscan panel) (Homo sapiens, UniProt P78362), sequence (P78362 whole entry): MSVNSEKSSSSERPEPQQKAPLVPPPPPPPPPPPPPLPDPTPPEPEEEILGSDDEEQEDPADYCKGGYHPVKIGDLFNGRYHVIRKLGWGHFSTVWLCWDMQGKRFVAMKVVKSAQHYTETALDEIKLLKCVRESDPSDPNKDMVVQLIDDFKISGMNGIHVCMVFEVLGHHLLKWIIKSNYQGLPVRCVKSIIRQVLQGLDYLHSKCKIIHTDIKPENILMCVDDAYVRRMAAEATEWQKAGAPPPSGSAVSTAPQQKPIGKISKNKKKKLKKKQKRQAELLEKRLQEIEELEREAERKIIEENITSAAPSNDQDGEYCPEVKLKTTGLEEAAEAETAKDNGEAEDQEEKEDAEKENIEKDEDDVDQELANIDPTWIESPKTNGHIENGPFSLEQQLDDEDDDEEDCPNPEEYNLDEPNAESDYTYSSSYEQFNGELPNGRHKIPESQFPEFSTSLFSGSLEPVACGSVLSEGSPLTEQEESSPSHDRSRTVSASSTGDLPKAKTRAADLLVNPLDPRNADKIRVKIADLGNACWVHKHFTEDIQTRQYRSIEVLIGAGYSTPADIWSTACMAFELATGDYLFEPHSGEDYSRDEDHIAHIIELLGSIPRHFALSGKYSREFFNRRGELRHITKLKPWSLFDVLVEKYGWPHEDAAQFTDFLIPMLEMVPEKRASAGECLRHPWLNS
kinases (KINOMEscan panel) (Homo sapiens, UniProt Q04912), sequence (Q04912 25-1400): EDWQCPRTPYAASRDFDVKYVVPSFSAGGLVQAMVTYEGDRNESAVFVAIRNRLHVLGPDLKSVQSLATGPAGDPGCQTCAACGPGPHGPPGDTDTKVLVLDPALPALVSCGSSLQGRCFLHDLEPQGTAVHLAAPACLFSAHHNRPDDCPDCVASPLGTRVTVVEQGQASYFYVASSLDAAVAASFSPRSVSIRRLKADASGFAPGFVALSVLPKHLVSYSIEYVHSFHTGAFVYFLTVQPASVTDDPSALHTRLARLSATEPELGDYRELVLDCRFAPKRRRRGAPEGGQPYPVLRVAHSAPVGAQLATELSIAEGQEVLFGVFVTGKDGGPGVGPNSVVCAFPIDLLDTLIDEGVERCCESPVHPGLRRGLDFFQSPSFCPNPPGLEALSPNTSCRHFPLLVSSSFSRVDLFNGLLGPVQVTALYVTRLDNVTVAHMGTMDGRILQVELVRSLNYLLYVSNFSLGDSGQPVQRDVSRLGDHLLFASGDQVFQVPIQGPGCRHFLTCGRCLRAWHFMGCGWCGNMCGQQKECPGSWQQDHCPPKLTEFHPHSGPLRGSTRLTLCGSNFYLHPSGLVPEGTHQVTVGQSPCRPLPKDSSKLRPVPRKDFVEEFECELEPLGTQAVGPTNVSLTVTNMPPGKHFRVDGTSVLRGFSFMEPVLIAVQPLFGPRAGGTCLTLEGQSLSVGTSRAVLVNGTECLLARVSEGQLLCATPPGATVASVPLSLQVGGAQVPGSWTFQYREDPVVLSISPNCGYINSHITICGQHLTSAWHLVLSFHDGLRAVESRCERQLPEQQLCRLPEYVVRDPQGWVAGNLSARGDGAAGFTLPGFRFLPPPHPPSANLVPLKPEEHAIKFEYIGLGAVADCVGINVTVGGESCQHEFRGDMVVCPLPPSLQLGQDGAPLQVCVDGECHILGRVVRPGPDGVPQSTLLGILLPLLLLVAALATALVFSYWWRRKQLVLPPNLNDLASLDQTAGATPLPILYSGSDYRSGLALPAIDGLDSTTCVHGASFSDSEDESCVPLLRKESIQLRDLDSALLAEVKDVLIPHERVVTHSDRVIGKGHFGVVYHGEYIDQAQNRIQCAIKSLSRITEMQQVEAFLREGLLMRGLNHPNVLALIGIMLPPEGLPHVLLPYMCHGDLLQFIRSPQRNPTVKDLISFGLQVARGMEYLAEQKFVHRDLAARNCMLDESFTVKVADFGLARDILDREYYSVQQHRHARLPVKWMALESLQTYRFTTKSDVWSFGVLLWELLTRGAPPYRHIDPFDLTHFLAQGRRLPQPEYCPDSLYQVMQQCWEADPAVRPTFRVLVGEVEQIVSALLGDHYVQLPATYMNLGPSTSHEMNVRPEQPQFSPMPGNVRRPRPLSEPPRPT
kinases (KINOMEscan panel) (Homo sapiens, UniProt Q96Q40), sequence (Q96Q40 whole entry): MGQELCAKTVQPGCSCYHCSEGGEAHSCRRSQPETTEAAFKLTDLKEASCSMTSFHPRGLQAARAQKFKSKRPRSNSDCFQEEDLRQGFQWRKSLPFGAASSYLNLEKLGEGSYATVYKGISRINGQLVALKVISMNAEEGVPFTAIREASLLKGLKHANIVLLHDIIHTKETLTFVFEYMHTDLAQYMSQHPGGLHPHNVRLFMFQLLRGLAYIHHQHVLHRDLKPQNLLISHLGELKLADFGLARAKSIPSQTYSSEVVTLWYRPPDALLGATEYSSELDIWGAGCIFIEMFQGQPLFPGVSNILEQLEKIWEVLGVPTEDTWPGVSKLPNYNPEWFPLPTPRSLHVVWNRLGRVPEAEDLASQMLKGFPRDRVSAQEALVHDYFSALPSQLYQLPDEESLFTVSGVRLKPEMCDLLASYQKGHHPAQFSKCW

| SMILES | KINOMEscan NEK6 [1] | KINOMEscan LRRK2 [2] | KINOMEscan CDK15/PFTAIRE2 [3] | KINOMEscan NEK3 [4] | KINOMEscan PRKACA [5] | KINOMEscan MST1R [6] | KINOMEscan EPHA1 [7] | KINOMEscan ABL1(T315I)-nonphosphorylated [8] | KINOMEscan ABL1(T315I)-phosphorylated [8] | KINOMEscan SRPK2 [9] | KINOMEscan CASK [10] |
| --- | --- | --- | --- | --- | --- | --- | --- | --- | --- | --- | --- |
| Cc1cccc(-c2nc(Nc3ccc4nn(C)cc4c3)c3ccccc3n2)n1 [NK167] | 0 | 21 | 0 | 46 | 12 | 0 | 1 | 0 | 4 | 0 | 0 |
| Cc1cccc(-c2nc(N(C)c3ccc4ncsc4c3)c3ccccc3n2)n1 [NK-161] | 6 | 27 | 0 | 33 | 17 | 2 | 0 | 0 | 3 | 0 | 0 |
